Data on 35 compounds can be found in US11001561B2, “Pyrimidinone derivatives as SHP2 antagonists” (MERCK PATENT GMBH, priority 2019, dated 2021).

Where a name gives a salt, the structure may show the parent alone. A value given as a limit tells only on which side of the number the result lay.

The first assay addresses Full length SHP2 protein (Recombinant Human SHP-2) (Homo sapiens (Human), UniProt Q06124). The experiment in a line: SHP2 biochemical assay (DiFMUP substrate, activating peptide IRSI_2pY). The following applies: SHP-2 biochemical assay IC50 (μM), activating peptide IRSI_2pY 140 nM, DiFMUP, 60 min.
Procedure: The inhibition of SHP2 by compounds of the invention was monitored using the surrogate substrate DiFMUP after protein activation by a peptide bearing two appropriately spaced phosphotyrosine. […] The generation of the DiFMU product by activated SHP2 was monitored through Fluorescence measurement with a PerkinElmer Envision reader. The inhibitor dose response curves were analyzed with Genedata Screener.
With `Cc1c(N[C@H]2CC[C@@H](N)CC2)ncn(-c2cccc(Cl)c2Cl)c1=O` [Compound 85, 6-(4-Amino-cyclohexylamino)-3-(2,3-dichloro-phenyl)-5-methyl-3H-pyrimidin-4-one], the IC50 is above 10 µM.

For `Cc1nc(N2CCC3(CC2)CO[C@@H](C)[C@H]3N)cc(=O)n1-c1c(F)ccc(Cl)c1Cl` (single isomer, unassigned) [Compound 32b], the IC50 was determined as 1.9 µM.

With `Cc1nc(N2C[C@@H]3CCC[C@]3(CN)C2)c(C(F)(F)F)c(=O)n1-c1cccc(Cl)c1Cl` (racemic) [Compound 25, (+/−)-6-[(3aS,6aR)-3a-(aminomethyl)-octahydrocyclopenta[c]pyrrol-2-yl]-3-(2,3-dichlorophenyl)-2-methyl-5-(trifluoromethyl)-3,4-dihydropyrimidin-4-one], the IC50 is 14 µM.

`Cc1c(N2CCC3(CC2)Oc2ccccc2[C@H]3N)nc(C)n(-c2cccc(Cl)c2Cl)c1=O` (single isomer, unassigned) [Compound 81a]: the IC50 was found to be 0.47 µM.

Consider `Cc1nc(N2CCC(C)(N3CC[C@H](O)C3)CC2)cc(=O)n1-c1cccc(Cl)c1Cl` (single isomer, unassigned) [Compound 72a], for which the IC50 is above 10 µM.

As to `Cc1nc(N2CCC3(CC2)CO[C@@H](C)[C@H]3N)nc(=O)n1-c1cccc(Cl)c1Cl` (single isomer, unassigned) [Compound 37b], the IC50 was above 10 µM.

Regarding `Cc1nc(N(C)[C@H]2CC[C@@](C)(N)CC2)cc(=O)n1-c1cccc(Cl)c1Cl` (single isomer, unassigned) [Compound 71b, 3-(2,3-dichlorophenyl)-2-methyl-6-{methyl[(cis)-4-amino-4-methylcyclohexyl]amino}-3,4-dihydropyrimidin-4-one], the 50% inhibitory concentration (IC50) turned out to be 20 µM.

As for `Cc1nc(N2CCC[C@](N)(CC(F)F)CC2)cc(=O)n1-c1cccc(Cl)c1Cl` (racemic) [Compound 58b, (+/−)-(3P)-6-4-[(1R)-4-amino-4-(2,2-difluoroethyl)-azepan-1-yl]-3-(2,3-dichlorophenyl)-2-methyl-3,4-dihydropyrimidin-4-one], the IC50 amounted to 1.3 µM.

Staying with this assay, now noted: activating peptide IRSI_2pY 140 nM, DiFMUP, 60 min; read-out: SHP-2 biochemical assay IC50.
Take `Cc1c(N2CCCC3(CCC3N)C2)nc(C)n(-c2cccc(Cl)c2Cl)c1=O` (centres unmarked) [Compound 90, 6-1-amino-6-azaspiro[3.5]nonan-6-yl-3-(2,3-dichlorophenyl)-2,5-dimethyl-3,4-dihydropyrimidin-4-one]: the IC50 came out at 3.9 µM.

Take `Cc1nc(N2CCC(C)(NCC3CCC(O)CC3)CC2)cc(=O)n1-c1cccc(Cl)c1Cl` (centres unmarked) [Compound 50, 3-(2,3-dichlorophenyl)-6-(4-{[(4-hydroxycyclohexyl)methyl]amino}-4-methylpiperidin-1-yl)-2-methyl-3,4-dihydropyrimidin-4-one]: the IC50 is 0.56 µM.

For the compound `Cc1nc(N2CC3CC4CC(C4(C)C)C3(CN)C2)cc(=O)n1-c1cccc(Cl)c1Cl` (centres unmarked) [Compound 60, 6-[2-(aminomethyl)-9,9-dimethyl-4-azatricyclo[6.1.1.0^2,6]decan-4-yl]-3-(2,3-dichlorophenyl)-2-methyl-3,4-dihydropyrimidin-4-one], the IC50 turned out to be 10 µM.

Regarding `Cc1nc(N2CCC(C)(CN)CC2)cc(=O)n1-c1c(F)ccc(Cl)c1Cl` (single isomer, unassigned) [Compound 33b, (3M)-6-[4-(aminomethyl)-4-methylpiperidin-1-yl]-3-(2,3-dichloro-6-fluorophenyl)-2-methyl-3,4-dihydropyrimidin-4-one], the IC50 came to 5.7 µM.

With `Cc1nc(C2=CCC(C)(CN)CC2)cc(=O)n1-c1cccc(Cl)c1Cl` (centres unmarked) [Compound 9, 6-[4-(aminomethyl)-4-methylcyclohex-1-en-1-yl]-3-(2,3-dichlorophenyl)-2-methyl-3,4-dihydropyrimidin-4-one], the half-inhibitory concentration (IC50) came out at 16 µM.

Regarding `CC1(N)CCN(c2cc(=O)n(-c3cccc(Cl)c3Cl)c(C(F)F)n2)CC1` [Compound 11, 6-(4-amino-4-methylpiperidin-1-yl)-3-(2,3-dichlorophenyl)-2-(difluoromethyl)-3,4-dihydropyrimidin-4-one], the half-maximal inhibitory concentration (IC50) turned out to be 3.8 µM.

On to `Cc1c(N2CCC(C)(N)CC2)nc(C)n(-c2ccc3ccccc3c2Cl)c1=O` [Compound 48, 6-(4-Amino-4-methyl-piperidin-1-yl)-3-(1-chloro-naphthalen-2-yl)-2,5-dimethyl-3H-pyrimidin-4-one], for which the IC50 was 18 µM.

With `Cc1c(N2CCC(C)(CN)CC2)nc(N)n(-c2cccc(Cl)c2Cl)c1=O` [Compound 114, 2-Amino-6-(4-aminomethyl-4-methyl-piperidin-1-yl)-3-(2,3-dichloro-phenyl)-5-methyl-3H-pyrimidin-4-one], the half-maximal inhibitory concentration (IC50) worked out at 1.4 µM.

As to `Cc1nc(N2CCC3(CC2)Cc2ccccc2[C@H]3N)cc(=O)n1-c1cccc(Cl)c1Cl` (single isomer, unassigned) [Compound 119a], the IC50 turned out to be 0.27 µM.

“(3M)-6-[(3aR,6aS)-3a-(aminomethyl)-5- (hydroxymethyl)- octahydrocyclopenta[c]pyrrol-2-yl]-3- (2,3-dichlorophenyl)-2,5-dimethyl-3,4- dihydropyrimidin-4-one [Compound 101]”: the IC50 was determined as 0.23 µM.

As to `Cc1c(N2CCC3(CCC[C@@H]3N)CC2)nc(N)n(-c2cccc(Cl)c2Cl)c1=O` (single isomer, unassigned) [Compound 78a], the half-maximal inhibitory concentration (IC50) is above 50 µM.

Turning to `Cc1nc(N2CCN3C(=O)C(N)CC3C2)cc(=O)n1-c1cccc(Cl)c1Cl` (centres unmarked) [Compound 61, 6-7-amino-6-oxo-octahydropyrrolo[1,2-a]pyrazin-2-yl-3-(2,3-dichlorophenyl)-2-methyl-3,4-dihydropyrimidin-4-one], the IC50 was above 10 µM.

`Cc1c(N2CCC(C)(N)CC2)nc(C)n(-c2cccc(Cl)c2Cl)c1=O` [Compound 12, 6-(4-amino-4-methylpiperidin-1-yl)-3-(2,3-dichlorophenyl)-2,5-dimethyl-3,4-dihydropyrimidin-4-one]: the IC50 was found to be 1 µM.

Take `COc1c(N2CCC3(CC2)CO[C@@H](C)[C@H]3N)nc(C)n(-c2cccc(Cl)c2Cl)c1=O` (single isomer, unassigned) [Compound 73a]: the IC50 was above 10 µM.

Take `Cc1c(N2CCO[C@H](CN)C2)nc(C)n(-c2cccc(Cl)c2Cl)c1=O` [Compound 92, 6-[(2R)-2-(aminomethyl)morpholin-4-yl]-3-(2,3-dichlorophenyl)-2,5-dimethyl-3,4-dihydropyrimidin-4-one]: the IC50 is 16 µM.

Regarding `Cc1c(N2CCC(C)(N)CC2)nc(C)n(-c2cccc3ncsc23)c1=O` [Compound 43, 6-(4-Amino-4-methyl-piperidin-1-yl)-3-benzothiazol-7-yl-2,5-dimethyl-3H-pyrimidin-4-one], the IC50 was above 10 µM.

On to `Cc1nc(N2CCC(O)(CN)CC2)cc(=O)n1-c1cccc(Cl)c1Cl` [Compound 28, 6-[4-(aminomethyl)-4-hydroxypiperidin-1-yl]-3-(2,3-dichlorophenyl)-2-methyl-3,4-dihydropyrimidin-4-one], for which the IC50 turned out to be 3.5 µM.

Turning to `Cc1c(N2CCC(C)(N)CC2)nc(C)n(-c2ccc3nccnc3c2)c1=O` [Compound 47, 6-(4-Amino-4-methyl-piperidin-1-yl)-2,5-dimethyl-3-quinoxalin-6-yl-3H-pyrimidin-4-one], the IC50 was above 10 µM.

For the compound `Cc1nc(N2CCC(NC[C@H](O)CO)CC2)cc(=O)n1-c1cccc(Cl)c1Cl` [Compound 42, 3-(2,3-dichlorophenyl)-6-(4-{[(2S)-2,3-dihydroxypropyl]amino}-piperidin-1-yl)-2-methyl-3,4-dihydropyrimidin-4-one], the concentration for half-maximal inhibition (IC50) turned out to be 4.3 µM.

On to `Cc1c(N2CCC(C)(CN)CC2)nc(C)n(-c2ccc3ccccc3c2)c1=O` [Compound 44, 6-(4-Aminomethyl-4-rnethyl-piperidin-1-yl)-2,5-dimethyl-3-naphthalen-2-yl-3H-pyrimidin-4-one], for which the half-maximal inhibitory concentration (IC50) was 18 µM.

For the compound `Cc1ccc(Cl)c(Cl)c1-n1c(C)nc(N2CCC3(CC2)CO[C@@H](C)[C@H]3N)c(C)c1=O` [Compound 102, 6-((3S,4S)-4-Amino-3-methyl-2-oxa-8-aza-spiro[4.5]dec-8-yl)-3-(2,3-dichloro-6-methyl-phenyl)-2,5-dimethyl-3H-pyrimidin-4-one], the half-inhibitory concentration (IC50) came to 7.3 µM.

Regarding `Cc1c(N2CCCC(CN)CC2)nc(C)n(-c2cccc(Cl)c2Cl)c1=O` (centres unmarked) [Compound 91, 6-[4-(aminomethyl)azepan-1-yl]-3-(2,3-dichlorophenyl)-2,5-dimethyl-3,4-dihydropyrimidin-4-one], the 50% inhibitory concentration (IC50) worked out at 2 µM.

As for `Cc1nc(N2CCC3(CC2)CO[C@@H](C)[C@H]3N)c(CCO)c(=O)n1-c1cccc(Cl)c1Cl` [Compound 76, 6-[(3S,4S)-4-amino-3-methyl-2-oxa-8-azaspiro[4.5]decan-8-yl]-3-(2,3-dichlorophenyl)-5-(2-hydroxyethyl)-2-methyl-3,4-dihydropyrimidin-4-one Hydrochloride], the concentration for half-maximal inhibition (IC50) turned out to be 7 µM.

`Cc1c(N2CCC3(CC2)CO[C@@H](C)[C@H]3N)nc(C)n(-c2ccc3ccccc3c2)c1=O` [Compound 45, 6-((3S,4S)-4-Amino-3-methyl-2-oxa-8-aza-spiro[4.5]dec-8-yl)-2,5-dimethyl-3-naphthalen-2-yl-3H-pyrimidin-4-one]: the IC50 came to 1.2 µM.

On to `Cc1nc(N2C[C@H]3COCC[C@@]3(CN)C2)cc(=O)n1-c1cccc(Cl)c1Cl` (racemic) [Compound 19, (+/−)-6-[(3aS,7aR)-7a-(aminomethyl)-octahydropyrano[3,4-c]pyrrol-2-yl]-3-(2,3-dichlorophenyl)-2-methyl-3,4-dihydropyrimidin-4-one], for which the concentration for half-maximal inhibition (IC50) amounted to 4 µM.

In the case of `Cc1c(N2CCC3(CC2)CO[C@@H](C)[C@H]3N)nc(C)n(-c2ccc3nccnc3c2)c1=O` [Compound 53, 6-((3S,4S)-4-Amino-3-methyl-2-oxa-8-aza-spiro[4.5]dec-8-yl)-2,5-dimethyl-3-quinoxalin-6-yl-3H-pyrimidin-4-one], the IC50 is 6.1 µM.

`Cc1c(N2CCC(C)(CN)CC2)nc(C)n(-c2ccc3nccnc3c2)c1=O` [Compound 55, 6-(4-Aminomethyl-4-methyl-piperidin-1-yl)-2,5-dimethyl-3-quinoxalin-6-yl-3H-pyrimidin-4-one]: the concentration for half-maximal inhibition (IC50) was above 10 µM.

By IC50 is commonly meant the concentration needed to halve the response being measured.
